Values quoted from earlier work, collected in patent US20240035023A1, “COMPUTER IMPLEMENTED METHOD FOR E[…] FOR SYNTHESIS OF FL[…]” (Kcat Enzymatic Private Limited, priority 2022, published 2024).

Target: fluorinase (Streptantibioticus cattleyicolor, UniProt Q70GK9)

In the case of Nc1ncnc2c1ncn2[C@@H]1O[C@H](CSCC[C@H](N)C(=O)O)[C@@H](O)[C@H]1O [S-adenosyl-homocysteine], the “enzyme activity against the substrate” value is given as “no activity”.
